Measured values published in patent US10906904B2, “ADO-resistant cysteamine analogs and uses thereof” (HORIZON ORPHAN LLC, priority 2015, dated 2021).
Where two headings read alike, the source gives them in different places.

How the values were obtained:
[1] = Dimethyl sulfide (DMS) detection in rat whole blood following oral compound administration; type: in vivo; details: rat, in vivo, po, 150 mg/kg
Protocol: Male Sprague Dawley (SD) rats (200-250 g) were housed in cages under a 12 hour light/dark cycle with free access to food and water. Temperature and humidity were controlled according to UK Home Office regulations. For oral (po) administration, test compounds were formulated in water at a concentration of 30 mg/mL, to provide a dose of 150 mg/kg when administered orally in a 5 mL/kg dosing volume. Following compound or water (vehicle) administration to rats (n=15 per compound), terminal blood samples (>5 mL) were taken by cardiac puncture under CO2 at defined time-points post oral dosing (pre-dose, 0.25 hour, 0.5 hour, 1 hour and 2 hour). Blood was placed in sealed heparinized Eppendorf tubes on wet ice and stored at 4° C. prior to analyzing DMS levels by gas chromatography (GC).
For each sample of rat blood, 1 mL was added to an evacuated 20 mL GC-Headspace vial containing tetrahydrofuran (THF) internal standard. Headspace vials were sealed with a crimp cap and septum (to prevent the vaporization of volatile sulfur compounds into the open air) and thoroughly vortex mixed. All samples were processed using gas chromatography to measure DMS levels. In short, sulfur containing compounds were thermally liberated into the gas carrier stream and injected (1 μL) into the gas chromatography column (30 m×0.32 mm DB-624 1.8 μm). Under these conditions, the retention time for dimethyl sulfide (DMS) and THF internal standard were approximately 1.83 minutes and 3.82 minutes respectively.
For each analyzed blood sample, the ratio of DMS peak area to THF peak area was calculated. For the DMS calibration curve and assay linearity checks, this ratio was graphically plotted against the concentration of reference DMS standards (blank, 60 nM, 180 nM, 360 nM, 600 nM, 1200 nM, 1800 nM and 3000 nM). The concentration of DMS in each blood sample was calculated from the equation produced by this plot by linear regression analysis. […].

St-HdhQ^111/111 cells = assay: Glutamate-induced neuronal excitotoxicity assay; type: cell-based; details: 6 mM L-glutamate 24 hours, % of effect of 100 μM cysteamine; for viability at 10 µM / viability at 100 µM: STHdhQ111; for viability at 10 µM: read-out: HdhQ^111/111 cell % survival (mean ± STD) Test Conc. 10 μM; for viability at 100 µM: read-out: HdhQ^111/111 cell % survival (mean ± STD) Test Conc. 100 μM
Protocol: The ability of test compounds to inhibit glutamate-induced excitotoxicity (neuroprotection) in St-HdhQ^111/111 cells was determined by incubating compounds with cells for 60 min at 33° C., 95% (v:v) air/5% (v:v) CO2 in Dulbecco's Modified Eagle Media. Following this, excitotoxicity was induced by the addition of 6 mM L-glutamate for 24 hours. Cell viability was assessed by measuring ATP levels using a luminescent-based CellTitre Glo assay (Promega). Compound neuroprotection (% cell survival) was expressed as a % of the effect recorded with 100 μM cysteamine (denoted as 100% cell survival).

human recombinant ADO = biological target: T1, human recombinant ADO (Homo sapiens, UniProt Q96SZ5); type: in vitro ADME; details: human, 15 mM
T1 sequence (Q96SZ5 1-270): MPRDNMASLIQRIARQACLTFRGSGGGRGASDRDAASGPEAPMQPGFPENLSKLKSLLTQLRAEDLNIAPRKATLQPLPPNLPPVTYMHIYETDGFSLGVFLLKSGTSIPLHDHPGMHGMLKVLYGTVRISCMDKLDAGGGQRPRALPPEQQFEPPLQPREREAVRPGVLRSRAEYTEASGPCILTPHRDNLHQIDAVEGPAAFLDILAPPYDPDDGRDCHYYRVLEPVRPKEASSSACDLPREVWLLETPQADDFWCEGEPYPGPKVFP
Protocol: The rate of ADO metabolism was determined by incubating 15 mM test compound with 60 μg/ml human recombinant ADO and 20 nM MitoXpress® O2-sensitive fluorescent probe (Luxcel) at 37° C. in assay buffer/salt in a sealed assay chamber. The initial rate of fluorescence (excitation λ380 nm and emission λ650 nm) increase was used to measure ADO-dependent oxygen depletion activity. The ability of ADO to metabolize compounds and concomitantly consume oxygen was expressed relative to that of 15 mM cysteamine.

Cystine reactivity assay = details: 30° C., percentage of 3 mM cysteamine
Protocol: Cystine reactivity was assessed by incubating 3 mM test compound with 100 nM BODIPY® FL L-Cystine (Life Tech.) at 30° C., pH 7.4 in phosphate buffer. […] Compound cystine reactivity was expressed as a percentage of that of 3 mM cysteamine.
Under resting conditions, the inherent fluorescence of BODIPY® FL L-cystine was very low due to the spatial proximity of the two BODIPY molecules causing quenching. Under chemical reaction (disruption of the S—S bond), the spatial distance was increased, the quenching lost, and measured fluorescence increased. Time (minutes) vs. fluorescence (relative fluorescence units—RFU) was plotted and linear regression analysis was performed to generate a slope value corresponding to the reaction rate in RFU/min and an R2 value.

[2] = tested on: cystinotic human fibroblasts; assay: Cystine depletion assay; type: cell-based; details: relative to cystine depletion by cysteamine (100%) at a similar concentration; for Emax: Homo sapiens, Fibroblast, 1 h
Protocol: The ability of test compounds to deplete cystine from cystinotic human fibroblasts (Coriell) was determined by incubating compounds with cells for 60 min at 37° C., 95% (v/v) air/5% (v/v) CO2 in Minimal Essential Media Eagle. Treated cell samples were subsequently harvested, then homogenized to ensure plasma and lysosomal membrane disruption. Protein was removed by acid precipitation and cystine in the supernatant measured using LC-MS/MS and HILIC chromatography. Protein levels were determined and cystine levels reported as nM per mg/ml protein. Cystine levels after test compound treatment were expressed as a percentage of that of untreated control cells.
Compounds were assayed at a concentration of 50 μM or 100 μM according to the general methods described above.
Cystine depletion levels for the compounds are expressed in Table 4 as a percent relative to the cystine depletion achieved by cysteamine (c.f. cysteamine 100%) at a similar concentration.
Cystine depletion levels for each of the compounds in Table 5 are expressed as a percent relative to the cystine depletion achieved by cysteamine (c.f. cysteamine 100%) at a similar concentration.

[3] = Table 4, read-out: Cystine Depletion (%)
[4] = Table 5, read-out: Cystine Depletion (%) Mean Value

Compound	Mean DMS levels (nM) ± STD, Time 1 hr ([1]; male, Sprague Dawley, 1 h) [nM]	Mean DMS levels (nM) ± STD, Time 2 hr ([1]; male, Sprague Dawley, 2 h) [nM]	ADO Metabolism Assay (%) Mean Value (human recombinant ADO) [%]	viability at 10 µM (St-HdhQ^111/111 cells; 10 μM) [%]	viability at 100 µM (St-HdhQ^111/111 cells; 100 μM) [%]	Cystine Reactivity Assay (30° C.) (%) Mean Value (Cystine reactivity assay; Table 4)	Cystine Reactivity Assay (30° C.) (%) Mean Value (Cystine reactivity assay; Table 5)	Emax [2, 3] [%]	Emax [2, 4] [%]	Mean DMS levels (nM) ± STD, Time 1 hr [1] [nM]	Mean DMS levels (nM) ± STD, Time 2 hr [1] [nM]	HdhQ^111/111 cell % survival (mean ± STD) Test Conc. 10 μM (St-HdhQ^111/111 cells; 10 μM) [%]	HdhQ^111/111 cell % survival (mean ± STD) Test Conc. 100 μM (St-HdhQ^111/111 cells; 100 μM) [%]	Cystine Depletion (%) ([2]; Table 4)	Cystine Depletion (%) Mean Value ([2]; Table 5) [%]
SC[C@@H]1CCCN1 (stereo in doubt) [Compound 42210]	<60	<60	<25	7 ± 6	105 ± 8	>90%	>90%	87	89						
SC1CCNCC1 [Compound 41188]	<60	<60	<25	20 ± 6	105 ± 11	59-90%		87							
SC1CNC1 [Compound 41446]							>90%			<60	<60	6 ± 9	101 ± 11	82	82
N[C@H]1C[C@H](S)C1 [Compound 42460]			<25	3 ± 5	95 ± 9	59-90%		111							
CCOC(=O)C1(S)CCCNC1 (stereo not shown) [Compound 42493]			<25	6 ± 10	87 ± 10	50-90%		74							
SC1CC2CCC(C1)N2 (stereo not shown) [Compound 42494]			<25	0	28 ± 17	59-90%		88							
S[C@H]1CCNC1 [Compound 42616]			<25	5 ± 7	56 ± 7	59-90%		79							
S[C@@H]1CCNC1 [Compound 42617]			<25	7 ± 10	89 ± 7	59-90%		101							
SCC1CCNCC1 [Compound 145586]			<25	9 ± 6	89 ± 9		50-90%		21						

More lines, main results first:

Mean DMS levels (nM) ± STD, Time 1 hr ([1]; male, Sprague Dawley, 1 h) [nM]	Mean DMS levels (nM) ± STD, Time 2 hr ([1]; male, Sprague Dawley, 2 h) [nM]	ADO Metabolism Assay (%) Mean Value (human recombinant ADO) [%]	Compound	viability at 10 µM (St-HdhQ^111/111 cells; 10 μM) [%]	viability at 100 µM (St-HdhQ^111/111 cells; 100 μM) [%]	Cystine Reactivity Assay (30° C.) (%) Mean Value (Cystine reactivity assay; Table 4)	Cystine Reactivity Assay (30° C.) (%) Mean Value (Cystine reactivity assay; Table 5)	Emax [2, 3] [%]	Emax [2, 4] [%]	Mean DMS levels (nM) ± STD, Time 1 hr [1] [nM]	Mean DMS levels (nM) ± STD, Time 2 hr [1] [nM]	HdhQ^111/111 cell % survival (mean ± STD) Test Conc. 10 μM (St-HdhQ^111/111 cells; 10 μM) [%]	HdhQ^111/111 cell % survival (mean ± STD) Test Conc. 100 μM (St-HdhQ^111/111 cells; 100 μM) [%]	Cystine Depletion (%) ([2]; Table 4)	Cystine Depletion (%) Mean Value ([2]; Table 5) [%]
		<25	N[C@H]1C[C@@H](CS)C1 [Compound 145587]	52 ± 9	97 ± 7		>90%		13						
		<25	SCC1CCCNC1 (stereo not shown) [Compound 145588]	9 ± 9	98 ± 5		>90%		31						
		<25	SC[C@H]1CCCCN1 [Compound 145590]	14 ± 7	90 ± 11		>90%		104						
		<25	OC1(CS)CCNCC1 [Compound 145610]	11 ± 8	87 ± 10		<50%		11						
		<25	CCN1CCCC1 [Compound 145611]	24 ± 13	94 ± 8		<50%		9						
		<25	CS(=O)(=O)N1CCNC(CS)C1 (stereo not shown) [Compound 145694]	2 ± 10	15 ± 15		>90%		0						
		<25	OCCC1(S)CNC1 [Compound 145695]	8 ± 10	74 ± 10		>90%		0						
